According to US11649269B2, “Bifunctional compounds comprising insulin peptides and EGF(A) peptides” (Novo Nordisk A/S, priority 2018, dated 2023):

What was measured:
primary rat adipocytes = experiment: Lipogenesis in rat adipocytes; format: cell-based
Description: Lipogenesis in Rat Adipocytes
As a measure of in vitro potency of the insulins of the invention, lipogenesis can be used. Primary rat adipocytes are isolated from the epididymale fat pads and incubated with 3H-glucose in buffer containing e.g. 1% fat free HSA and either standard (human insulin, HI) or insulin of the invention. The labelled glucose is converted into extractable lipids in a concentration dependent way, resulting in full concentration response curves. The result is expressed as relative potency (%) with 95% confidence limits of insulin of the invention compared to standard (HI).

PCSK9 = biological target: T1, PCSK9 (Homo sapiens, UniProt Q8NBP7); experiment: PCSK9-LDL-R binding competitive ELISA; conditions: apparent binding affinity
T1 construct: purchased BioSite/BPSBioscience (PCSK9); R & D systems (rhLDL-R) 71304 (PCSK9); 2148-LD (rhLDL-R); host or cells: rhLDL-R: NSO-derived

HepG2 cells = experiment: LDL uptake assay in HepG2 cells in the presence of PCSK9; format: cell-based, human; conditions: PCSK9 10 ug/mL
[1] = biological target: T2, human insulin receptor (IR), solubilised human IR-A (Homo sapiens, UniProt P06213); experiment: Insulin receptor affinity on solubilised receptors, competition binding SPA, 0% HSA; conditions: Table 3, example numbers, binding affinity relative to human insulin
T2 construct: baby hamster kidney (BHK) cells overexpressing the IR-A holoreceptor; made in house; host or cells: baby hamster kidney (BHK) cells overexpressing IR-A; detergent-solubilised, WGA semipurified

[2] = biological target: T2, human insulin receptor (IR), solubilised human IR-A; experiment: Insulin receptor affinity SPA, related assay with 1.5% HSA in binding buffer; conditions: Table 3, example numbers, binding affinity relative to human insulin
[3] = in vivo
[4] = Table 3, example numbers, potency relative to human insulin
[5] = Table 4, labels are comparator compound numbers, relative to human insulin
[6] = Table 5, example numbers, Ki converted from IC50
[7] = Table 6, labels are comparator compound numbers

Row | Substance | Lipogenesis 1% HSA (% rel to HI) (primary rat adipocytes; [4]) | Lipogenesis 1% HSA (% rel to HI) (primary rat adipocytes; [5]) | also measured
1 | EGF(A)(301L, 309R, 312E, 321E)-[GAQP]2-Insulin(B3E, B29K(eicosanedioyl-gGlu-2×OEG), desB30) [Example 6] | 0.06 % rel to HI | 0.06 % rel to HI | Ki (PCSK9; [6]): 2.49 nM
2 | EGF(A)(301L, 309R, 312E, 321E)-[GAQP]2-Insulin(B3E, B29K(hexadecanedioyl-gGlu-2×OEG), desB30) [Example 1] | 0.49 % rel to HI | 0.14 % rel to HI | 
3 | EGF(A)(301L, 309R, 312E, 321E)-[GAQP]2-Insulin(B3E, B29K(octadecanedioyl-gGlu-2×OEG), desB30) [Example 3] | 0.16 % rel to HI | 0.06 % rel to HI | 
4 | EGF(A)(301L, 309R, 312E, 321E)-[GAQP]2-Insulin(B3E, B29K(octadecanedioyl-gGlu-OEG), desB30) [Example 5] |  | 0.44 % rel to HI | 
5 | EGF(A)(301L, 309R, 312E, 321E)-[GAQP]2-Insulin(B29K(eicosanedioyl-gGlu-2×OEG), desB30) [Example 7] |  | 0.18 % rel to HI | Ki (PCSK9; [7]): 1.74 nM
6 | EGF(A)(301L, 309R, 312E, 321E)-[GAQP]2-Insulin(B29K(octadecanedioyl-gGlu-2×OEG), desB30) [Example 4] | 0.13 % rel to HI | 0.07 % rel to HI | 
7 | EGF(A)(301L, 309R, 312E, 321E)-[GAQP]3-Insulin(A14E, B29K(octadecanedioyl-gGlu-2×OEG), desB30) [Example 10] | 0.12 % rel to HI |  | EC50 (HepG2 cells; [7]): 152 nM
8 | EGF(A)(301L, 309R, 312E, 321E)-[GAQP]4-Insulin(A14E, B29K(octadecanedioyl-gGlu-2×OEG), desB30) [Example 11] | 0.12 % rel to HI |  | 
9 | EGF(A)(301L, 309R, 312E, 321E)-[GAQP]4-Insulin(B29K(octadecanedioyl-gGlu-2×OEG), desB30) [Example 12] | 0.14 % rel to HI |  | 
10 | EGF(A)(301L, 309R, 312E, 321E)-[GAQP]6-Insulin(A14E, B29K(eicosanedioyl-gGlu-2×OEG), desB30 [Example 16] | 0.08 % rel to HI |  | hIR-A 0% HSA (% rel to HI) [1]: 4.77 % rel to HI; hIR-A 1.5% HSA (% rel to HI) [2]: 0.26 % rel to HI; Ki (PCSK9; [6]): 1.75 nM
11 | EGF(A)(301L, 309R, 312E, 321E)-[GAQP]6-Insulin(A14E, B29K(octadecanedioyl-gGlu-2×OEG), desB30) [Example 13] | 0.11 % rel to HI |  | EC50 (HepG2 cells; Table 5, example numbers): 170 nM; hIR-A 0% HSA (% rel to HI) [1]: 5.53 % rel to HI; hIR-A 1.5% HSA (% rel to HI) [2]: 0.35 % rel to HI; Rat iv Mean Residence Time MRT [3]: 13.56 h; Ki (PCSK9; [6]): 1.92 nM
12 | EGF(A)(301L, 309R, 312E, 321E)-[GAQP]6-Insulin(A14E, B29K(octadecanedioyl-gGlu-OEG), desB30) [Example 15] | 0.08 % rel to HI |  | hIR-A 0% HSA (% rel to HI) [1]: 5.70 % rel to HI; hIR-A 1.5% HSA (% rel to HI) [2]: 0.23 % rel to HI; Ki (PCSK9; [6]): 2.07 nM
13 | EGF(A)(301L, 309R, 312E, 321E)-[GAQP]6-Insulin(B29K(octadecanedioyl-gGlu-2×OEG), desB30) [Example 14] | 0.10 % rel to HI |  | 
14 | EGF(A)(301L, 309R, 312E, 321E)-[GAQP]10-Insulin(B29K(octadecanedioyl-gGlu-2×OEG), desB30) [Example 2] |  | 0.06 % rel to HI | 
15 | EGF(A)(301L, 309R, 312E, 321E)-[GAQP]12-Insulin(B29K(octadecanedioyl-gGlu-2×OEG), desB30) [Example 18] | 0.09 % rel to HI |  | 
16 | EGF(A)(301L, 309R, 312E, 321E)-[GAQP]13-Insulin(B29K(octadecanedioyl-gGlu-2×OEG), desB30) [Example 9] | 0.12 % rel to HI |  | 
17 | EGF(A)(301L, 309R, 312E, 321E)-[GAQP]19-Insulin(A14E, B29K(eicosanedioyl-gGlu-2×OEG), desB30) [Example 23] | 0.02 % rel to HI |  | EC50 (HepG2 cells; Table 5, example numbers): 126 nM; hIR-A 0% HSA (% rel to HI) [1]: 2.89 % rel to HI; hIR-A 1.5% HSA (% rel to HI) [2]: 0.14 % rel to HI
18 | EGF(A)(301L, 309R, 312E, 321E)-[GAQP]19-Insulin(B29K(eicosanedioyl-gGlu-2×OEG), desB30) [Example 22] | 0.06 % rel to HI |  | 
19 | EGF(A)(301L, 309R, 312E, 321E)-[GAQP]19-Insulin(B29K(octadecanedioyl-gGlu-2×OEG), desB30) [Example 19] | 0.09 % rel to HI |  | 
20 | EGF(A)(301L, 309R, 312E, 321E)-[GAQP]119-Insulin(A14E, B29K(octadecanedioyl-gGlu-2×OEG), desB30) [Example 20] | 0.03 % rel to HI |  | EC50 (HepG2 cells; Table 5, example numbers): 123 nM
21 | EGF(A)(301L, 309R, 312E, 321E)-[GAQP]119-Insulin(B3E, B29K(eicosanedioyl-gGlu-2×OEG), desB30) [Example 24] | 0.06 % rel to HI |  | 
22 | EGF(A)(301L, 309R, 312E, 321E)-[GAQP]119-Insulin(B3E, B29K(octadecanedioyl-gGlu-2×OEG), desB30) [Example 21] | 0.07 % rel to HI |  | 
23 | EGF(A)(301L, 309R, 312E, 321E)-[GQAP]2-Insulin(B29K(octadecanedioyl-gGlu-2×OEG), desB30) [Example 8] | 0.14 % rel to HI | 0.30 % rel to HI | 
